# US10100097B2, “GIP-GLP-1 dual agonist compounds and methods” (Zealand Pharma A/S, priority 2012, dated 2018)
# Square brackets hold non-standard residues; d marks the D form. Peptide text beside a SMILES is read from it. Aib = CC(C)(N)C(=O)O
# Biological target: T1, human GLP-1 R (Homo sapiens, UniProt P43220)
# T1 construct: expressed in transfected cells
# Test: Human GLP-1 receptor (GLP-1 R) activity assay, cAMP induction (AlphaScreen cAMP kit)
# Type: cell-based
# Details: HEK293 cells expressing the human GLP-1 R, 15 min at 37° C., average values of multiple determinations, read-out: GLP1 R (EC50 in nM)
# Method: Human GIP Receptor (GIP R) and GLP-1 Receptor (GLP-1 R) Activity Assay
# In vitro effects of peptide conjugates of the invention were assessed by measuring the induction of cAMP following stimulation of the respective receptor by GIP, GLP1 or analogues of these, as outlined in the invention, using the AlphaSceen® cAMP kit from Perkin-Elmer according to instructions. Briefly. HEK293 cells expressing the human GIP R or GLP-1 R (stable cell lines generated through transfection of the cDNA for human GIP R or GLP-1 and selection of stable clones) were seeded at 30,000 cells/well in 96-well microtiter plates coated with 0.01% poly-L-lysine, and grown for 1 day in culture in 200 μl growth medium (DMEM, 10% FCS, Penicillin (100 IU/ml), Streptomycin (100 μg/ml)). On the day of analysis, growth medium was removed and the cells were washed once with […] Tyrode's buffer (Tyrode's Salts (9.6 g/1), 10 mM HEPES, pH 7.4). […] The Assay buffer was removed and cells are lysed in 80 μl Lysis buffer (0.1% w/v BSA, 5 mM HEPES, 0.3% v/v Tween-20) per well. From each well 10 μl lysed cells was transferred to a 384-well plate and mixed with 15 μl bead-mix (1 Unit/15 μl anti-cAMP Acceptor Beads, 1 Unit/15 μl Donor Beads, and 1 Unit/15 μl Biotinylated cAMP in Assay Buffer). The plates were mixed and incubated in the dark for an hour at room temperature before measuring using an Envision™ plate reader (Perkin-Elmer).
# T1 sequence (P43220 24-463): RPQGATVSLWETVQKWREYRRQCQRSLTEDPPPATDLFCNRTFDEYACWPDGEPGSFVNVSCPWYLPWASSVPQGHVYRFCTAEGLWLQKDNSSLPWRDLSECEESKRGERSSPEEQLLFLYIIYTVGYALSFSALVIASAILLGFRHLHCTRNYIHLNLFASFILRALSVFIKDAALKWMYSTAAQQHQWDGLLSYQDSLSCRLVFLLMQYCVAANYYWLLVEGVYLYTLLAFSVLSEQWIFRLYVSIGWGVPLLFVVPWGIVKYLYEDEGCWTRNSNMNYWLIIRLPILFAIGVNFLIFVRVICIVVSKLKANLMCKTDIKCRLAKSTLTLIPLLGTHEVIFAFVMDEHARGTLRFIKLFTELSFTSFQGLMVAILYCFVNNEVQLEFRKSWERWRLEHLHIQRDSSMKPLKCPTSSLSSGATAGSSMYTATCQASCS
row,Compound,EC50
1,CC[C@H](C)[C@H](NC(=O)[C@H](CO)NC(=O)[C@H](Cc1ccc(O)cc1)NC(=O)[C@H](CC(=O)O)NC(=O)[C@H](CO)NC(=O)[C@@H](NC(=O)[C@H](Cc1ccccc1)NC(=O)[C@@H](NC(=O)CNC(=O)[C@H](CCC(=O)O)NC(=O)C(C)(C)NC(=O)[C@@H](N)Cc1ccc(O)cc1)[C@@H](C)O)[C@@H](C)O)C(=O)NC(C)(C)C(=O)N[C@@H](CC(C)C)C(=O)N[C@@H](CC(=O)O)C(=O)N[C@@H](CCCCN)C(=O)N[C@@H](CCCCN)C(=O)N[C@@H](C)C(=O)N[C@@H](CCC(N)=O)C(=O)N[C@@H](CCCNC(=N)N)C(=O)N[C@@H](C)C(=O)N[C@@H](Cc1ccccc1)C(=O)N[C@H](C(=O)N[C@@H](CCC(=O)O)C(=O)N[C@@H](Cc1c[nH]c2ccccc12)C(=O)N[C@@H](CC(C)C)C(=O)N[C@@H](CC(C)C)C(=O)N[C@@H](C)C(=O)N[C@@H](CCC(N)=O)C(=O)NCC(=O)N1CCC[C@H]1C(=O)N[C@@H](CO)C(=O)N[C@@H](CO)C(=O)NCC(=O)N[C@@H](C)C(=O)N1CCC[C@H]1C(=O)N1CCC[C@H]1C(=O)N1CCC[C@H]1C(=O)N[C@@H](CO)C(N)=O)C(C)C [Compound 2] (H-Y[Aib]EGTFTSDYSI[Aib]LDKKAQRAFVEWLLAQGPSSGAPPPS-NH2),0.015 nM
2,CC[C@H](C)[C@H](NC(=O)[C@H](CO)NC(=O)[C@H](Cc1ccc(O)cc1)NC(=O)[C@H](CC(=O)O)NC(=O)[C@H](CO)NC(=O)[C@@H](NC(=O)[C@H](Cc1ccccc1)NC(=O)[C@@H](NC(=O)CNC(=O)[C@H](CCC(=O)O)NC(=O)C(C)(C)NC(=O)[C@@H](N)Cc1ccc(O)cc1)[C@@H](C)O)[C@@H](C)O)C(=O)N[C@@H](C)C(=O)N[C@@H](CC(C)C)C(=O)N[C@@H](CC(=O)O)C(=O)N[C@@H](CCCCN)C(=O)N[C@@H](CCCCN)C(=O)N[C@@H](C)C(=O)N[C@@H](CCC(N)=O)C(=O)N[C@@H](CCCNC(=N)N)C(=O)N[C@@H](C)C(=O)N[C@@H](Cc1ccccc1)C(=O)N[C@H](C(=O)N[C@@H](CC(N)=O)C(=O)N[C@@H](Cc1c[nH]c2ccccc12)C(=O)N[C@@H](CC(C)C)C(=O)N[C@@H](CC(C)C)C(=O)N[C@@H](C)C(=O)NC(C)(C)C(=O)N[C@@H](CCCCN)C(N)=O)C(C)C [Compound 12] (H-Y[Aib]EGTFTSDYSIALDKKAQRAFVNWLLA[Aib]K-NH2),0.01 nM
3,CC[C@H](C)[C@H](NC(=O)[C@H](CO)NC(=O)[C@H](Cc1ccc(O)cc1)NC(=O)[C@H](CC(=O)O)NC(=O)[C@H](CO)NC(=O)[C@@H](NC(=O)[C@H](Cc1ccccc1)NC(=O)[C@@H](NC(=O)CNC(=O)[C@H](CCC(=O)O)NC(=O)C(C)(C)NC(=O)[C@@H](N)Cc1ccc(O)cc1)[C@@H](C)O)[C@@H](C)O)C(=O)N[C@@H](Cc1ccc(O)cc1)C(=O)N[C@@H](CC(C)C)C(=O)N[C@@H](CCC(=O)O)C(=O)N[C@@H](CCCCN)C(=O)N[C@@H](CCCCN)C(=O)N[C@@H](C)C(=O)N[C@@H](CCC(N)=O)C(=O)N[C@@H](CCCNC(=N)N)C(=O)N[C@@H](C)C(=O)N[C@@H](Cc1ccccc1)C(=O)N[C@H](C(=O)N[C@@H](CC(N)=O)C(=O)N[C@@H](Cc1c[nH]c2ccccc12)C(=O)N[C@@H](CC(C)C)C(=O)N[C@@H](CC(C)C)C(=O)N[C@@H](C)C(=O)NC(C)(C)C(=O)N[C@@H](CCCCN)C(N)=O)C(C)C [Compound 14] (H-Y[Aib]EGTFTSDYSIYLEKKAQRAFVNWLLA[Aib]K-NH2),0.0087 nM
